In patent publication US20250177275A1, “ACTIVE AGENT MODULATING THE ACTIVITY OF AN ION CHANNEL FOR USE IN INHIBITION OF SKIN AGING” (Cutaneon - Skin & Hair Innovations GmbH, priority 2022, published 2025):
“Also recorded” adds a separate entry of the source.

Columns and labels:
Collagen 17A [1] = test: Collagen 17A immunofluorescence, quantitative immunohistomorphometry in ex vivo human skin organ culture; format: cell-based; settings: 3 days
Experimental: (§1) Samples of human abdominal, breast, temporal, and occipital skin were obtained with written patient consent and under ethical approval from healthy adult human subjects during elective plastic surgery performed for cosmetic reasons. Full-thickness human skin samples were prepared as 4-6 mm punches, placed on filter paper, and cultured at the air-liquid interphase under serum-free conditions in William's E medium supplemented only with penicillin-streptomycin, insulin, hydrocortisone and L-glutamine, as described previously.
For modelling the application of the actives directly to the skin surface (topical application) 2,5-dimethylpyrazine (DMP), a TRPM5 activator was dissolved at 37° C. at a final concentration of 12.5 mM in a 50% v/v solution of Isopropanol in PBS containing 1 g/mL of Polyethylene glycol 6000. […]
(§2) Images were then obtained with a digital microscope (Keyence). Quantitative immunohistomorphometric analysis was performed by assessing the relative fluorescent or color intensity in standardized reference areas with ImageJ (NIH; Bethesda, MD, USA). […] Two skin punch biopsies were analyzed per experimental group unless indicated otherwise. […]

Cytokeratin 15 [2] = test: Cytokeratin 15 immunofluorescence, quantitative immunohistomorphometry in ex vivo human skin organ culture; format: cell-based; settings: topical DMP 12.5 mM, 3 days, vs vehicle
Experimental: as §1, with “previously. […]” for “previously.”
as §2
After consecutive rinses with PBS, samples were incubated with Alexa fluorophore-conjugated secondary antibodies diluted 1:500 in antibody diluent containing 2% normal goat serum for 45 minutes at room temperature. […] Image acquisition and quantitative immunohistomorphometric analysis were performed similar to as described above.

Lamin B1 = Lamin B1 immunofluorescence, quantitative immunohistomorphometry in ex vivo human skin organ culture; format: cell-based; settings: systemic (medium) DMP 12.5 μM, 3 days, vs vehicle
PGC1α = PGC1α immunofluorescence, quantitative immunohistomorphometry in ex vivo human skin organ culture; format: cell-based; settings: systemic (medium) DMP 12.5 μM, 3 days, vs vehicle
Sirtuin-1 = Sirtuin-1 immunohistochemistry, quantitative immunohistomorphometry in ex vivo human skin organ culture; format: cell-based; settings: systemic (medium) DMP 12.5 μM, 3 days, vs vehicle
Ki67 [3] = test: Ki67 immunofluorescence, quantitative immunohistomorphometry in ex vivo human skin organ culture; format: cell-based; settings: 3 days
Experimental: as §1, with “previously. […]” for “previously.”
as §2
For the detection of Ki67, formalin-fixed human skin frozen sections were blocked with PBS containing 10% normal goat serum (NGS) for 30 minutes at room temperature and then incubated with an anti-Ki67 antibody diluted 1:800 in PBS containing 2% NGS overnight at 4° C. […] Image acquisition and quantitative immunohistomorphometric analysis were performed similar to as described above.

Collagen 17A [4] = test: Collagen 17A immunofluorescence in normal human epidermal keratinocyte (NHEK) culture; format: cell-based; settings: 24 hrs; for expression of Collagen 17A in NHEKs: vs vehicle
Experimental: (§3) Primary adult normal human epidermal keratinocytes (NHEK) were cultured in serum-free Keratinocyte Growth Medium 2 (KGM2) up to passage 6 and were seeded on glass slides at a density of 15-20×10^3 cells/cm^2. The next day, the KGM2 culture medium was changed and supplemented with hereafter indicated compounds, their combination or ethanol as vehicle control.
(§4) For application of the active to the medium (systemic application), 2,5-dimethylpyrazine (DMP), a TRPM5 activator, the DMP stock was dissolved at 37° C. at a final concentration of 10, 12.5 or 100 nM in KGM2. For triphenylphosphine oxide (TPPO), a TRPM5 inhibitor, a stock was prepared in ethanol and dissolved at 37° C. at a final concentration of 50 μM in KGM2. After 24 hours, NHEKs were washed in PBS and then either fixed in 4% formaldehyde for 10 minutes are room temperature (immunofluorescence labeling) or lysed in Buffer RLT containing 1% β-mercaptoethanol (for quantitative RT-qPCR).
(§5) For the detection of Collagen 17A in cell cultures, formalin-fixed NHEKs were permeabilized in PBS containing 0.05% Triton™ X-100 for 10 minutes, rinsed in PBS and then blocked in PBS containing 10% normal goat serum (NGS) for 20 minutes. Next, samples were incubated with an anti-Collagen 17A diluted 1:100 in antibody diluent overnight at 4° C. After consecutive rinses with PBS, samples were incubated with Alexa fluorophore-conjugated secondary antibodies diluted 1:500 in antibody diluent containing 2% NGS for 45 minutes at room temperature. […]
(§6) For the analysis on NHEKs, images were then obtained with a digital microscope (Keyence). Quantitative immunohistomorphometric analysis was performed by assessing the number of positive cells or the relative fluorescence intensity in standardized reference areas with ImageJ (NIH; Bethesda, MD, USA). Briefly, for the evaluation of Collagen 17A, the relative target-specific intensity was measured in 14-20 cells per microscopic field. For each parameter 14-20 microscopic fields were evaluated.

Cytokeratin 15 [5] = test: Cytokeratin 15 immunofluorescence in normal human epidermal keratinocyte (NHEK) culture; format: cell-based; settings: 24 hrs; for expression of Cytokeratin 15 in NHEKs: vs vehicle
Experimental: as §3, §4
as §5, with “Cytokeratin 15” for “Collagen 17A”, “anti-Cytokeratin 15” for “anti-Collagen 17A”
as §6, with “Cytokeratin 15,” for “Collagen 17A,”

COL17A1 = COL17A1 mRNA by RT-qPCR in NHEK culture; format: cell-based, human; settings: DMP 10 nM, 24 hrs, normalized to GAPDH, vs vehicle
Experimental: as §3
as §4, with “For triphenylphosphine oxide (TPPO), a TRPM5 inhibitor, a stock was prepared in ethanol and dissolved at 37° C. at a final concentration of 50 μM in KGM2.” left out
(§7) For the assessment of Collagen 17A and Cytokeratin 15 specific mRNA transcripts (COL17A, KRT15) by quantitative RT-qPCR technology, RNA was isolated from cells lysed in Buffer RLT containing 1% β-mercaptoethanol using the RNeasy Mini Kit according to the manufacturer's instructions. RNA purity and concentrations were determined using the BioDrop. […] Real-time quantitative polymerase chain reaction (qRT-PCR) was run in triplicate using TaqMan™ Fast Advanced Master Mix and TaqMan Gene Expression Assays on the QuantStudio. […]

KRT15 = KRT15 mRNA by RT-qPCR in NHEK culture; format: cell-based, human; settings: DMP 100 nM, 24 hrs, normalized to GAPDH, vs vehicle
Experimental: as §3
as §4, with “For triphenylphosphine oxide (TPPO), a TRPM5 inhibitor, a stock was prepared in ethanol and dissolved at 37° C. at a final concentration of 50 μM in KGM2.” left out
as §7

Ki67 [6] = test: Ki67 positive cell count (proliferation) in NHEK culture; format: cell-based, human; settings: DMP 100 nM, 24 hrs, vs vehicle
Experimental: as §3
as §4, with “For triphenylphosphine oxide (TPPO), a TRPM5 inhibitor, a stock was prepared in ethanol and dissolved at 37° C. at a final concentration of 50 μM in KGM2.” left out, “RT-qPCR). […]” for “RT-qPCR).”
as §6, with “Ki67,” for “Collagen 17A,”, “number of cells with positive nuclear staining per field” for “relative target-specific intensity”, “counted and normalized to the total number of DAPI positive nuclei.” for “measured in 14-20 cells per microscopic field.”

[7] = test system: Phospho-Histone H3 Ser10 (pH3S10); test: Phospho-Histone H3 Ser10 (pH3S10) positive cell count in NHEK culture; format: cell-based, human; settings: DMP 100 nM, 24 hrs, vs vehicle
Experimental: as §3
as §4, with “For triphenylphosphine oxide (TPPO), a TRPM5 inhibitor, a stock was prepared in ethanol and dissolved at 37° C. at a final concentration of 50 μM in KGM2.” left out, “RT-qPCR). […]” for “RT-qPCR).”
as §6, with “pH3S10,” for “Collagen 17A,”, “number of cells with positive nuclear staining per field” for “relative target-specific intensity”, “counted and normalized to the total number of DAPI positive nuclei.” for “measured in 14-20 cells per microscopic field.”

[8] = topical DMP 12.5 mM, vs vehicle
[9] = topical TPPO 1.5 mM with topical DMP 12.5 mM

SMILES	expression of Collagen 17A in the basal layers of the epidermis (Collagen 17A [1]; [8])	expression of Cytokeratin 15 in the basal layers of the epidermis (Cytokeratin 15 [2])	expression of Lamin B1 in the epidermis (Lamin B1)	expression of PGC1α in the epidermis (PGC1α)	expression of Sirtuin 1 in the epidermis (Sirtuin-1)	expression of Ki67 in the epidermis (Ki67 [3]; [8])	expression of Collagen 17A in NHEKs (Collagen 17A [4]; DMP 12.5 nM)	expression of Collagen 17A in NHEKs (Collagen 17A [4]; DMP 100 nM)	expression of Cytokeratin 15 in NHEKs (Cytokeratin 15 [5]; DMP 12.5 nM)	expression of Cytokeratin 15 in NHEKs (Cytokeratin 15 [5]; DMP 100 nM)	gene expression of COL17A1 (RT-qPCR) (COL17A1)	gene expression of KRT15 (RT-qPCR) (KRT15)	number of Ki67 positive (proliferating) NHEKs (Ki67 [6])	number of pH3S10 positive (dividing and proliferating) NHEKs [7]	effect on DMP-induced upregulation of Collagen 17A expression (Collagen 17A [1]; [9])	effect on DMP-induced upregulation of Ki67 expression (Ki67 [3]; [9])	effect on DMP-induced upregulation of Collagen 17A expression (Collagen 17A [4]; TPPO 50 μM with DMP 100 nM)	effect on DMP-induced upregulation of Cytokeratin 15 expression (Cytokeratin 15 [5]; TPPO 50 μM with DMP 100 nM)
Cc1cnc(C)cn1 [DMP, 2,5-dimethylpyrazine]	upregulate; also recorded: markedly increases	markedly increases	markedly increases	markedly increases	markedly increases	upregulate	markedly increases	upregulate	markedly increases	upregulate	markedly increases	markedly increases	markedly increases	markedly increases	–	–	–	–
O=P(c1ccccc1)(c1ccccc1)c1ccccc1 [TPPO, triphenylphosphine oxide, reference compound]	–	–	–	–	–	–	–	–	–	–	–	–	–	–	prevented the effect	prevented the effect	prevented the effect	prevented the effect
